Measurements reported in patent US9301961B2, “Autoimmune and inflammatory disorder therapy” (Katholieke Universiteit Leuven, K.U. Leuven R&D, priority 2011, dated 2016).

Target: T1, YSK4 (h) (Homo sapiens, UniProt Q56UN5)
T1 construct: purchased Millipore
T1 sequence (Q56UN5 1-1328): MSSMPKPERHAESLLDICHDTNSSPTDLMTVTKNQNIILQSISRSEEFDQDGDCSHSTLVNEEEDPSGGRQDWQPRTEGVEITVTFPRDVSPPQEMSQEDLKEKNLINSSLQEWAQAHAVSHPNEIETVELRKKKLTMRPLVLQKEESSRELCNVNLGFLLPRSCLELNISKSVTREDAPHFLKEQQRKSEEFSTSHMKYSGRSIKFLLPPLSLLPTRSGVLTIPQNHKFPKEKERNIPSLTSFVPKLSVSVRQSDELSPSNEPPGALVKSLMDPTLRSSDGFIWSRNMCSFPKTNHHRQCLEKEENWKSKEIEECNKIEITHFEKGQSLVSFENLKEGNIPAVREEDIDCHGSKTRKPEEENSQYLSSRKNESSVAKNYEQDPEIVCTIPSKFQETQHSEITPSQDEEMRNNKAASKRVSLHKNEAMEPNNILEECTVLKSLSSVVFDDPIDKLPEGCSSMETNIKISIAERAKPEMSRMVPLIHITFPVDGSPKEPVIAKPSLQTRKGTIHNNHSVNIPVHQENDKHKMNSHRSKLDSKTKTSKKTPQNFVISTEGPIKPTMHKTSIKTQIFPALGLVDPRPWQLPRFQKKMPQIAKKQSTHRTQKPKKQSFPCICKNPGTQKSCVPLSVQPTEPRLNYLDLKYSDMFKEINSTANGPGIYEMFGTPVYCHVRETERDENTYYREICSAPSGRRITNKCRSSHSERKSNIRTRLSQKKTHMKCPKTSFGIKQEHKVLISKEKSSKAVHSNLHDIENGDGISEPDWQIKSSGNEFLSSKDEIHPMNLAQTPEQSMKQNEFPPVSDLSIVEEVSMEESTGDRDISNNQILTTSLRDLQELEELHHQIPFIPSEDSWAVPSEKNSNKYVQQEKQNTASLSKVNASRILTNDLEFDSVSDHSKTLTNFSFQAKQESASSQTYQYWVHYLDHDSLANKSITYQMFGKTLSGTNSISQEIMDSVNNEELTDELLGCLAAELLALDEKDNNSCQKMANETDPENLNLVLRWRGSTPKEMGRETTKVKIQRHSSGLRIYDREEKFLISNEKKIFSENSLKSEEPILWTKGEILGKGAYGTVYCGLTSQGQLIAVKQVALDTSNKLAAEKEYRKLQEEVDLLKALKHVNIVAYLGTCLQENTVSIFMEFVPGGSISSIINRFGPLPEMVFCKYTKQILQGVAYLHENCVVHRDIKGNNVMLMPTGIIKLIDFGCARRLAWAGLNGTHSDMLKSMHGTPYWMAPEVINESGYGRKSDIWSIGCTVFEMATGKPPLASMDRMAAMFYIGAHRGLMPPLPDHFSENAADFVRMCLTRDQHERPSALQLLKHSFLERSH
Assay: Commercial kinase activity assay (Millipore, 33P-ATP filter)
Assay type: biochemical
Conditions: 10 μM test compound
Protocol: LOK (h) was incubated with 8 mM MOPS pH 7.0, 0.2 mM EDTA, 250 μM […], 10 mM MgAcetate and [γ-^33P-ATP] (specific activity approx. 500 cpm/pmol, concentration as required). The reaction was initiated by the addition of the MgATP mix. After incubation for 40 minutes at room temperature, the reaction was stopped by the addition of 3% phosphoric acid solution. 10 μL of the reaction was then spotted onto a P30 filtermat and washed three times for 5 minutes in 75 mM phosphoric acid and once in methanol prior to drying and scintillation counting. PI3K p110β/p85α (h) PI3K (p110β/p85α) (h) was incubated in assay buffer containing 10 μM phosphatidylinositol-4,5-bisphosphate and MgATP (concentration as required). The reaction was initiated by the addition of the MgATP mix. After incubation for 30 minutes at room temperature, the reaction was stopped by the addition of stop solution containing EDTA and biotinylated phosphatidylinositol-3,4,5-trisphosphate. Finally, detection buffer was added, which contains europium-labelled anti-GST monoclonal antibody, GST-tagged GRP1 PH domain and streptavidinallophycocyanin. The plate was then read in time-resolved fluorescence mode and the homogenous time-resolved fluorescence (HTRF®) signal determined according to the formula HTRF=10000×(Em665nm/Em620 nm). YSK4 (h) YSK4 (h) was incubated with 8 mM MOPS pH 7.0, 0.2 mM EDTA, 250 […], 10 mM MgAcetate and [γ-^33P-ATP] (specific activity approx. 500 cpm/pmol, concentration as required). The reaction was initiated by the addition of the MgATP mix. After incubation for 40 minutes at room temperature, the reaction was stopped by the addition of 3% phosphoric acid solution. 10 μL of the reaction was then spotted onto a P30 filtermat and washed three times for 5 minutes in 75 mM phosphoric acid and once in methanol prior to drying and scintillation counting. PI4KA (PI4K alpha) The 2× PI4KA (PI4K alpha)/PI Lipid Kinase Substrate mixture was prepared in 20 mM Tris, pH 7.5, 0.4% Triton X-100, 5 mM MgCl2, 0.5 mM EGTA. The final 10 μL Kinase Reaction consisted of 75-300 ng PI4KA (PI4K alpha) and 100 μM PI Lipid Kinase Substrate in 7.5 mM HEPES, 10 mM Tris, pH 7.5, 0.2% Triton X-100, 2.5 mM MgCl2, 0.25 mM EGTA. After the 1 hour Kinase Reaction incubation, 5 μL of Detection Mix consisting of a europium labeled anti-ADP antibody, an Alexa Fluor® 647 labeled ADP tracer, and EDTA (to stop the kinase reaction) was added to the assay well. ADP formed by the kinase reaction (in the absence of an inhibitor) displaced the Alexa Fluor® 647 labeled ADP tracer from the antibody, resulting in a decrease in the TR-FRET signal. […] PI4KB (PI4K beta) The 2× PI4KB (PI4K beta)/PI Lipid Kinase Substrate mixture was prepared in 50 mM HEPES pH 7.5, 0.1% CHAPS, 1 mM EGTA, 4 mM MgCl2. […]

With Nc1nc(N2CCN(C(=O)COc3ccc(Cl)cc3)CC2)c2nc(-c3cccnc3)sc2n1 [formula (1), 5-amino-7-[4-(4-chlorophenoxyacetyl)piperazin-1-yl]-2-(pyridin-3-yl)thiazolo[5,4-d]pyrimidine] the Kinase activity was 108 percentage of control.
